The source of these data is the NIST ThermoML archive (doi:10.1007/s10765-010-0768-y).

For data set [1] the following is noted: 101 kPa, Liquid, Pycnometric method.
Data set [2] in a line: xn = mol fraction of the nth substance listed. Particulars: 101 kPa, Liquid, Pycnometric method, x2 = 0.

Numbers after ± are expanded uncertainties.

As usually defined, the mass density is the mass of a sample divided by its volume. For the compound `Cc1ccccc1C` [1,2-dimethylbenzene], the mass density is on record as 884.09 ± 0.22 kg/m3 in data set [1] (288.15 K); 879.83 ± 0.21 kg/m3 in data set [1] (293.15 K); 875.57 ± 0.22 kg/m3 in data set [1] (298.15 K); 871.31 ± 0.23 kg/m3 in data set [1] (303.15 K); 867.05 ± 0.24 kg/m3 in data set [1] (308.15 K); 862.79 ± 0.25 kg/m3 in data set [1] (313.15 K). For the same compound, the mass density in data set [1] (318.15 K) turned out to be 858.53 ± 0.26 kg/m3.
With `Cc1ccccc1C` [1,2-dimethylbenzene] + C=CC(=O)OCCCC, the mass density was determined as 884.09 ± 0.22 kg/m3 in data set [2] (288.15 K); 879.83 ± 0.21 kg/m3 in data set [2] (293.15 K); 875.57 ± 0.22 kg/m3 in data set [2] (298.15 K); 871.31 ± 0.23 kg/m3 in data set [2] (303.15 K); 867.05 ± 0.24 kg/m3 in data set [2] (308.15 K); 862.79 ± 0.25 kg/m3 in data set [2] (313.15 K). Further, the mass density in data set [2] (318.15 K) was found to be 858.53 ± 0.26 kg/m3.
As for `Cc1cc(C)cc(C)c1` [1,3,5-trimethylbenzene], the mass density came out at 869.28 ± 0.24 kg/m3 in data set [1] (288.15 K); 865.37 ± 0.23 kg/m3 in data set [1] (293.15 K); 861.45 ± 0.24 kg/m3 in data set [1] (298.15 K); 857.54 ± 0.25 kg/m3 in data set [1] (303.15 K); 853.63 ± 0.26 kg/m3 in data set [1] (308.15 K); 849.71 ± 0.27 kg/m3 in data set [1] (313.15 K). In addition, the mass density in data set [1] (318.15 K) was found to be 845.8 ± 0.28 kg/m3.
As for `Cc1cc(C)cc(C)c1` [1,3,5-trimethylbenzene] + C=CC(=O)OCCCC, the mass density was 869.28 ± 0.24 kg/m3 in data set [2] (288.15 K); 865.37 ± 0.23 kg/m3 in data set [2] (293.15 K); 861.45 ± 0.24 kg/m3 in data set [2] (298.15 K); 857.54 ± 0.25 kg/m3 in data set [2] (303.15 K); 853.63 ± 0.26 kg/m3 in data set [2] (308.15 K); 849.71 ± 0.27 kg/m3 in data set [2] (313.15 K). Besides, in data set [2] (318.15 K), the mass density was determined as 845.8 ± 0.28 kg/m3.
`Cc1cccc(C)c1` [1,3-dimethylbenzene]: the mass density stood at 868.59 ± 0.22 kg/m3 in data set [1] (288.15 K); 864.31 ± 0.21 kg/m3 in data set [1] (293.15 K); 860.02 ± 0.22 kg/m3 in data set [1] (298.15 K); 855.74 ± 0.23 kg/m3 in data set [1] (303.15 K); 851.45 ± 0.24 kg/m3 in data set [1] (308.15 K); 847.17 ± 0.25 kg/m3 in data set [1] (313.15 K). The mass density in data set [1] (318.15 K) stood at 842.88 ± 0.26 kg/m3.
As to `Cc1cccc(C)c1` [1,3-dimethylbenzene] + C=CC(=O)OCCCC, the mass density in data set [2] (288.15 K) came to 868.59 ± 0.22 kg/m3; in data set [2] (293.15 K) it was 864.31 ± 0.21 kg/m3; in data set [2] (298.15 K), 860.02 ± 0.22 kg/m3; in data set [2] (303.15 K), 855.74 ± 0.23 kg/m3; in data set [2] (308.15 K) it was 851.45 ± 0.24 kg/m3; in data set [2] (313.15 K), 847.17 ± 0.25 kg/m3. In addition, in data set [2] (318.15 K), the mass density turned out to be 842.88 ± 0.26 kg/m3.
On to `Cc1ccc(C)cc1` [1,4-dimethylbenzene], for which the mass density came to 865.52 ± 0.22 kg/m3 in data set [1] (288.15 K); 861.17 ± 0.2 kg/m3 in data set [1] (293.15 K); 856.82 ± 0.21 kg/m3 in data set [1] (298.15 K); 852.47 ± 0.22 kg/m3 in data set [1] (303.15 K); 848.12 ± 0.23 kg/m3 in data set [1] (308.15 K); 843.77 ± 0.24 kg/m3 in data set [1] (313.15 K). Also, the mass density in data set [1] (318.15 K) was 839.42 ± 0.25 kg/m3.
Consider `Cc1ccc(C)cc1` [1,4-dimethylbenzene] + C=CC(=O)OCCCC, for which the mass density in data set [2] (288.15 K) worked out at 865.52 ± 0.22 kg/m3; in data set [2] (293.15 K), 861.17 ± 0.2 kg/m3; in data set [2] (298.15 K) it was 856.82 ± 0.21 kg/m3; in data set [2] (303.15 K), 852.47 ± 0.22 kg/m3; in data set [2] (308.15 K), 848.12 ± 0.23 kg/m3; in data set [2] (313.15 K), 843.77 ± 0.24 kg/m3. Further, in data set [2] (318.15 K), the mass density came to 839.42 ± 0.25 kg/m3.
As for `c1ccccc1` [benzene], the mass density is listed as 884.3 ± 0.22 kg/m3 in data set [1] (288.15 K); 878.95 ± 0.2 kg/m3 in data set [1] (293.15 K); 873.61 ± 0.21 kg/m3 in data set [1] (298.15 K); 868.26 ± 0.22 kg/m3 in data set [1] (303.15 K); 862.9 ± 0.23 kg/m3 in data set [1] (308.15 K); 857.56 ± 0.24 kg/m3 in data set [1] (313.15 K). The mass density in data set [1] (318.15 K) came out at 852.23 ± 0.25 kg/m3.
As to `c1ccccc1` [benzene] + C=CC(=O)OCCCC, the mass density amounted to 884.3 ± 0.22 kg/m3 in data set [2] (288.15 K); 878.95 ± 0.2 kg/m3 in data set [2] (293.15 K); 873.61 ± 0.21 kg/m3 in data set [2] (298.15 K); 868.26 ± 0.22 kg/m3 in data set [2] (303.15 K); 862.9 ± 0.23 kg/m3 in data set [2] (308.15 K); 857.56 ± 0.24 kg/m3 in data set [2] (313.15 K). In addition, the mass density in data set [2] (318.15 K) was determined as 852.23 ± 0.25 kg/m3.
For `C=CC(=O)OCCCC` [butyl 2-propenoate], the mass density is 903.6 ± 0.27 kg/m3 in data set [1] (288.15 K); 898.85 ± 0.26 kg/m3 in data set [1] (293.15 K); 894.1 ± 0.27 kg/m3 in data set [1] (298.15 K); 889.35 ± 0.28 kg/m3 in data set [1] (303.15 K); 884.6 ± 0.29 kg/m3 in data set [1] (308.15 K); 879.85 ± 0.3 kg/m3 in data set [1] (313.15 K). Moreover, in data set [1] (318.15 K), the mass density was determined as 875.1 ± 0.31 kg/m3.
As for `Cc1ccccc1` [toluene], the mass density is given as 871.79 ± 0.21 kg/m3 in data set [1] (288.15 K); 867.08 ± 0.2 kg/m3 in data set [1] (293.15 K); 862.36 ± 0.21 kg/m3 in data set [1] (298.15 K); 857.64 ± 0.22 kg/m3 in data set [1] (303.15 K); 852.93 ± 0.23 kg/m3 in data set [1] (308.15 K); 848.21 ± 0.24 kg/m3 in data set [1] (313.15 K). The mass density in data set [1] (318.15 K) was found to be 843.49 ± 0.25 kg/m3.
`Cc1ccccc1` [toluene] + C=CC(=O)OCCCC: the mass density stood at 871.79 ± 0.21 kg/m3 in data set [2] (288.15 K); 867.08 ± 0.2 kg/m3 in data set [2] (293.15 K); 862.36 ± 0.21 kg/m3 in data set [2] (298.15 K); 857.64 ± 0.22 kg/m3 in data set [2] (303.15 K); 852.93 ± 0.23 kg/m3 in data set [2] (308.15 K); 848.21 ± 0.24 kg/m3 in data set [2] (313.15 K). Moreover, the mass density in data set [2] (318.15 K) is reported as 843.49 ± 0.25 kg/m3.
